Assay results reported in paper PMC4821601, “The Interactions of P-Glycoprotein with Antimalarial Drugs, Including Substrate Affinity, Inhibition and Regulation” (PLoS ONE, 2016).
Like-named read-outs stand apart in the source and are kept apart here. Marks after values point to notes of the source that are not given here. Blank lines part the entries; values can stand above or below the compound they belong to.

Tests used:
P-gp [1] = conditions: cited from earlier work
[2] = Bidirectional transport (Papp, efflux ratio) of antimalarials through Caco-2 cell monolayers; assay type: in vitro ADME, human; conditions: human; for Papp at 120 min: Caco-2, Caco-2 monolayers
Procedure: (§1) The initial experiments were conducted in mid-40s passage cells and repeated in early 80s passage Caco-2 cells. […] In order to maintain equivalent transport medium (HBSS/HBSS with inhibitor) level both outside and inside the chambers, 300 μL was used as medium in the apical chambers and 600 μL in the basolateral chambers. […] Drugs were co-incubated with MRCP, BCRP and ATP hydrolysis blockers to determine the involvement of other efflux mechanisms. Prior to the experiment, the transport medium, HBSS or HBSS with P-gp inhibitors were pre-incubated with the cells for 30 minutes. Following incubation, inserts were placed in new well plates and donor chamber is replaced with drug or drug with inhibitor and the receiver chamber with blank HBSS or HBSS with inhibitor. Transport medium was collected from the receiver chamber after stirring at time intervals of 30, 60, 90 and 120 minutes and was replaced with the same volume of fresh HBSS, or HBSS with inhibitor, when P-gp inhibitors were used in the study. At the end of the experiment 100 μL of medium was removed from the donor chamber in addition to medium collected from the receiver chamber during the study. The cells were then washed thoroughly in cold (4°C) PBS and cell membranes attached to the inserts were sonicated for 10 minutes in a sonicating water bath and centrifuged at 10,000 g for 10 minutes. Supernatant was frozen at -80°C until assayed. […] CL.vol=[…].vol = clearance volume (mL), n = time (min), Aa = amount in acceptor compartment at time n (pmols), Cd0 = concentration in donor compartment at time zero (nM), Vd = volume of the donor compartment (mL), Ca = concentration in acceptor compartment at the previous time point (nM), Vs = sample volume of previous time point (mL), Ac = amount of compound associated with the cells (pmol), Nfin = final time point (min). […] The cleared volume was plotted against time and the slope of the regression line was divided by the surface area to obtain the Papp values. […] The method from Davis and colleagues was adopted with slight modifications. Separations were performed using an Apollo C18 (5 μm, 4.6x150mm) column attached to a matched guard column (5 μm, 4.6x5.5 mm). […] The injection volume was 40 μL and column oven was maintained at 35°C. The analytes were detected at 222 nm and the retention time was 5.6 minutes. Assay developed by Pussard and co-workers were used and slight modifications were done to adjust laboratory conditions. Separation was done using a Prevail C18 (3 μm, 4.6x150mm) column attached to a Direct-connect^TM universal column prefilter. The mobile phase consisted of 20 mM (w/v) KH2PO4 in deionized water at pH 3.0 and acetonitrile (82:18) v/v. […] The injection volume was 40 μL and column oven was maintained at 30°C. The analytes were detected at 343 nm with a retention time of 2.4 minutes. […] Separations were performed using an Apollo C18 (5 μm, 4.6x150mm) column attached to matched guard column (5 μm, 4.6x5.5mm). […] The injection volume was 40 μL and column oven was maintained at 30°C. The analytes were detected at 660 nm with a retention time of 3.8 minutes. A 40 μL sample was spiked with 5 μL 0.5 mM artemisinin internal standard. […] The pipettor was adjusted to the maximum volume (100 μL). […] Pre-treated samples were loaded into the tips by gently aspirating and discarding into the same vial. The process was repeated 10 times in order to increase binding efficiency of drugs to the OMIX 96 C4 matrix. […] The LC-MS method described by […] and co-workers were modified to suit the LC-MS-MS conditions. […] Wexford, Ireland) at 40°C. […] Quantitation was performed in multiple reactions monitoring, MRM mode, using DUIS (ESI^+ and APCI^+) ion sources. […] The optimized mass spectra were acquired with an interface voltage of 4.5 kV, a detector voltage of 1.0 kV, a heat block temperature of 500°C and a desolvation temperature of 160°C.

Caco-2 cell monolayers = experiment: as above; assay type: in vitro ADME, human
Procedure: as §1

[3] = cited from earlier work
P-glycoprotein (P-gp) = biological target: T1, P-glycoprotein (P-gp) (Homo sapiens, UniProt P08183); experiment: Bidirectional transport of rhodamine123 through Caco-2 monolayers co-incubated with antimalarials (P-gp inhibitory properties); assay type: in vitro ADME
T1 construct: In-vitro Caco-2 cell monolayers were used here as a model for potential drug absorption related problems and P-gp mediated transport of drugs; endogenous in cells; host or cells: Caco-2 (human colon carcinoma, ATCC)
Procedure: The Caco-2 cells were seeded on 0.6 cm^2 […] Millipore PCF™ filter inserts at the cell density of 65,000 cells/cm^2 as done previously in the lab. Briefly, the cells were grown for 21–24 days to allow full maturation and formation of tight monolayers. The initial experiments were conducted in mid-40s passage cells and repeated in early 80s passage Caco-2 cells. The Trans epithelial electrical resistance (TEER) was measured immediately before and after the experiment using an epithelial voltage/ohm meter and an ENDOHM 12 chamber (World precision instruments, Sarasota, FL). TEER values were measured both before and after the study with readings above 300 Ω.cm^2 considered as acceptable for tight junctions. […] In order to maintain equivalent transport medium (HBSS/HBSS with inhibitor) level both outside and inside the chambers, 300 μL was used as medium in the apical chambers and 600 μL in the basolateral chambers. […] Drugs were co-incubated with MRCP, BCRP and ATP hydrolysis blockers to determine the involvement of other efflux mechanisms. Prior to the experiment, the transport medium, HBSS or HBSS with P-gp inhibitors were pre-incubated with the cells for 30 minutes. Following incubation, inserts were placed in new well plates and donor chamber is replaced with drug or drug with inhibitor and the receiver chamber with blank HBSS or HBSS with inhibitor. Transport medium was collected from the receiver chamber after stirring at time intervals of 30, 60, 90 and 120 minutes and was replaced with the same volume of fresh HBSS, or HBSS with inhibitor, when P-gp inhibitors were used in the study. At the end of the experiment 100 μL of medium was removed from the donor chamber in addition to medium collected from the receiver chamber during the study. The cells were then washed thoroughly in cold (4°C) PBS and cell membranes attached to the inserts were sonicated for 10 minutes in a sonicating water bath and centrifuged at 10,000 g for 10 minutes. Supernatant was frozen at -80°C until assayed. The Papp values of three well plates were determined using methods modified from Artursson’s group as described by Crowe and Lemaire.
CL.vol=Aa/{[Cd0×Vd−[Aa+(Ca×Vs)]−(Ac)×n/nfin]/Vd}
CL.vol = clearance volume (mL), n = time (min), Aa = amount in acceptor compartment at time n (pmols), Cd0 = concentration in donor compartment at time zero (nM), Vd = volume of the donor compartment (mL), Ca = concentration in acceptor compartment at the previous time point (nM), Vs = sample volume of previous time point (mL), Ac = amount of compound associated with the cells (pmol), Nfin = final time point (min). Papp = Apparent permeability (cm/sec) Rate of clearance (mL/min)=CL.vol / n Papp (cm/sec)=Rate of clearance / Surface area (cm^2)
The cleared volume was plotted against time and the slope of the regression line was divided by the surface area to obtain the Papp values. […] Mean Papp for Bas-Ap direction was divided by the Ap-Bas direction to obtain the efflux ratio and values above two were considered as drugs having true efflux transport.

P-gp [4] = conditions: 20 μM, 96 hours, Caco-2, western blot vs control
Procedure: Caco-2 cells were seeded in 6 well plates at 10,000 cells/cm^2 for 21 days. Drugs and drug combinations at 20 μM prepared in cell growth medium were added on to the mature cells and exposed for 96 hours. After drug exposure, cells were washed three times using PBS and cell lysate was prepared in lysis buffer. The protein content was quantified using the 96 well micro-Lowry protein assay and regulation of P-gp was determined using western blotting.
The membrane was blocked using 2% casein in TBS and washed with TBST. The primary antibody; Mdr (G-1) mouse monoclonal IgG2b 200 and mouse anti-β actin were used as the antibody for β-actin, the reference protein. The antibody; HRP linked goat anti mouse IgG was used as the secondary antibody. The washed membrane was incubated in a BioRad clarity chemiluminescent substrate and enhancer was read and semi quantified using the BIORAD Chemidoc MPT imager with Image LabTM software.

[5] = tested on: Caco-2 intestinal epithelial cells; parameters: method as in PMID 8773952; conditions: earlier report ref 53; cited from earlier work
[6] = summary in abstract, methylene blue depending on the direction of transport, read-out: permeability

T1 sequence (P08183 whole entry): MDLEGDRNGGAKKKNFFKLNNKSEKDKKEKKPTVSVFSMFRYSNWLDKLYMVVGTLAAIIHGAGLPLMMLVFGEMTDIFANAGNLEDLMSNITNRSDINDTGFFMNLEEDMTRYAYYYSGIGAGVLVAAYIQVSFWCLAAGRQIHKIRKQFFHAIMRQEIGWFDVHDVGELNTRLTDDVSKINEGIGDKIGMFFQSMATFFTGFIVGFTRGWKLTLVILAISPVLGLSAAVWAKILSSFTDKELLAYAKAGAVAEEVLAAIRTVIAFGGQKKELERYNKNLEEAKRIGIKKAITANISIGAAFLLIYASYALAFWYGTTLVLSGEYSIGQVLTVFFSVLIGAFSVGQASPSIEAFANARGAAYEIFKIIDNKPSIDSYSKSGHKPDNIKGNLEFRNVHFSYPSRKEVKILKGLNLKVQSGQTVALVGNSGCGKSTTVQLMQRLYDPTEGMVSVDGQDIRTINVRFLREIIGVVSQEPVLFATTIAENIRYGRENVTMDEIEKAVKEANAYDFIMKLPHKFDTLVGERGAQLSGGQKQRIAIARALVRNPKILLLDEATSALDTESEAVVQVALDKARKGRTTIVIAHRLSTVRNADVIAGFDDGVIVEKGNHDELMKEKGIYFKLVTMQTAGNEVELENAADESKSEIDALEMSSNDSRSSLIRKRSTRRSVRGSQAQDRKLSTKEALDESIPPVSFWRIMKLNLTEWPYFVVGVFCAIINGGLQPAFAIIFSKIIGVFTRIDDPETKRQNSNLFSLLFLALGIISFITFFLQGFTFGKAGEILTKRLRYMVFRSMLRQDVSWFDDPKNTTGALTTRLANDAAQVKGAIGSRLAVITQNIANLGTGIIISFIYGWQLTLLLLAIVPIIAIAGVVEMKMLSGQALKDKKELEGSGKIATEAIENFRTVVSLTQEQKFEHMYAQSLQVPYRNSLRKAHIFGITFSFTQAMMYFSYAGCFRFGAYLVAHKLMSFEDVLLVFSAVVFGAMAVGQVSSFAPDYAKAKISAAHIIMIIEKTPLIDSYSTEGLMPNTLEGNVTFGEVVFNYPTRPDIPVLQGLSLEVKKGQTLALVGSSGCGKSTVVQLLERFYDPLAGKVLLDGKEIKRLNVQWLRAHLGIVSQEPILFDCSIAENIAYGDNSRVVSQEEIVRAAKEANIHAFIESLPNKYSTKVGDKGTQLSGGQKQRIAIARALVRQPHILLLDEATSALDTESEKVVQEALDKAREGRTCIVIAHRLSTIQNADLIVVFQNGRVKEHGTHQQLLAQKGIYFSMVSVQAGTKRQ

Structure (SMILES): C/C=C/C[C@@H](C)C(=O)[C@H]1C(=O)N[C@@H](C(C)C)C(=O)N(C)CC(=O)N(C)[C@@H](CC(C)C)C(=O)N[C@@H](C(C)C)C(=O)N(C)[C@@H](CC(C)C)C(=O)N[C@@H](C)C(=O)N[C@H](C)C(=O)N(C)[C@@H](CC(C)C)C(=O)N(C)[C@@H](CC(C)C)C(=O)N(C)[C@@H](C(C)C)C(=O)N1C [PSC-833, PSC 833]
P-gp transport inhibition (P-gp [1]; at 4 μM ref 19): completely eradicate P-gp mediated transport

Structure (SMILES): CCN(CC)Cc1cc(Nc2ccnc3cc(Cl)ccc23)ccc1O [AQ, amodiaquine]
Papp at 120 min ([2]; drug alone, read-out: Ap-Bas directional Papp, range over concentrations tested): 16 to 22 ×10⁻⁶ cm/s
Papp at 120 min [2, 6]: ~20 ×10⁻⁶ cm/s
Papp at 120 min, 10 µM ([2]; Caco-2, Conc (μM) + inhibitor (μM): 10, first-named drug measured, read-out: Papp Ap-Bas): 16 ± 1.1 ×10⁻⁶ cm/s
Papp B→A at 120 min, 10 µM ([2]; Caco-2, Conc (μM) + inhibitor (μM): 10, first-named drug measured, read-out: Papp Bas-Ap): 21.5 ± 0.9 ×10⁻⁶ cm/s
Papp at 120 min, 100 µM ([2]; Caco-2, Conc (μM) + inhibitor (μM): 100, first-named drug measured, read-out: Papp Ap-Bas): 22.5 ± 2 ×10⁻⁶ cm/s
Papp B→A at 120 min, 100 µM ([2]; Caco-2, Conc (μM) + inhibitor (μM): 100, first-named drug measured, read-out: Papp Bas-Ap): 23.3 ± 0.8 ×10⁻⁶ cm/s
Net flow direction (Caco-2 cell monolayers; Conc (μM) + inhibitor (μM): 10): Efflux (0.02) ^*
Net flow direction (Caco-2 cell monolayers; Conc (μM) + inhibitor (μM): 100): Diffusion (0.74)
tmax ([3]; oral administration in human ref 46): < 1 h
P-gp inhibitory properties (P-gp [1]; at 100 and 1000 μM ref 38): P-gp inhibitory properties

Structure (SMILES): C[C@H]1[C@H](OC(=O)CCC(=O)O)O[C@@H]2O[C@@]3(C)CC[C@H]4[C@H](C)CC[C@@H]1[C@@]24OO3 [ART, artesunate]
P-gp inhibitory properties (P-glycoprotein (P-gp); at 100 μM): did not exhibit P-gp inhibitory properties
P-gp inhibitory properties (P-glycoprotein (P-gp); at test concentrations): did not exhibit P-gp inhibitory properties
Papp at 120 min ([2]; read-out: permeability across the gastrointestinal epithelium (class)): 1 to 25 ×10⁻⁶ cm/s
Papp at 120 min [2, 6]: ~10 ×10⁻⁶ cm/s
efflux ratio at 120 min, 50 µM ([2]; Caco-2, Conc (μM) + inhibitor (μM): 50, Bas-Ap divided by Ap-Bas): 1.5
Papp at 120 min, 50 µM ([2]; Caco-2, Conc (μM) + inhibitor (μM): 50, first-named drug measured, read-out: Papp Ap-Bas): 10.2 ± 0.3 ×10⁻⁶ cm/s
Papp B→A at 120 min, 50 µM ([2]; Caco-2, Conc (μM) + inhibitor (μM): 50, first-named drug measured, read-out: Papp Bas-Ap): 12.3 ± 0.1 ×10⁻⁶ cm/s
Net flow direction (Caco-2 cell monolayers; Conc (μM) + inhibitor (μM): 50): Efflux (0.002) ^*
Efflux ratio (Caco-2 cell monolayers; Conc (μM) + inhibitor (μM): 50, Bas-Ap divided by Ap-Bas): 1.2
regulation of P-gp expression (P-gp [4]): slight up regulation of P-gp

Structure (SMILES): CN(C)c1ccc2nc3ccc(=[N+](C)C)cc-3sc2c1 [MB, methylene blue]
oral bioavailability ([3]; human volunteers, 100 mg ref 51): 10%

Efflux ratio of rh123 (P-glycoprotein (P-gp); 5 μM rh123, 100 μM antimalarial drugs section): 4.7
efflux ratio at 120 min, 5 µM (P-glycoprotein (P-gp); human, Caco-2, probe rhodamine 123, 5 μM rh123, 100 μM antimalarial drugs section): ~5
efflux ratio at 120 min, 5 µM (P-glycoprotein (P-gp); human, Caco-2, probe rhodamine 123, 5 μM rh123, 300 μM antimalarial drugs section): 5.7
Papp at 120 min, 5 µM (P-glycoprotein (P-gp); human, Caco-2, probe rhodamine 123, 5 μM rh123, 300 μM antimalarial drugs section, read-out: Papp of rh123 Ap-Bas): 0.5 ± 0.1 ×10⁻⁶ cm/s
Structure (SMILES): COC(=O)c1ccccc1-c1c2ccc(=N)cc-2oc2cc(N)ccc12 [Rh123, rhodamine123]

Structure (SMILES): C[C@H]1[C@H](OC(=O)CCC(=O)[O-])O[C@@H]2O[C@@]3(C)CC[C@H]4[C@H](C)CC[C@@H]1[C@@]24OO3.[Na+] [sodium artesunate]
Papp [5]: 4 ×10⁻⁶ cm/s
